PubChem BioAssay AID1963421 (Molecular Pharmacology Branch, DTP, NCI, 2024)

Test system: 519858-162-T-J1-PDC complex spheroid growth, % test/control
Assay: Anticancer human tumor 519858-162-T-J1-PDC patient-derived colon adenocarcinoma cell line growth inhibition [Asc]
Conditions: for IC50: curve of first compound; for viability, T/C: stronger effect = lower value
Outline: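 Complex solid-tumor spheroids incorporating human endothelial and mesenchymal stem cells received single agents or combinations over half-log dilution ranges anchored to clinical Cmax.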

[1] = second compound 0.00949 µM, first compound 0.00316 µM
[2] = second compound 0.00949 µM, first compound 0.01 µM
[3] = second compound 0.00949 µM, first compound 0.0316 µM
[4] = second compound 0.00949 µM, first compound 0.1 µM
[5] = second compound 0.03 µM, first compound 0.00316 µM
[6] = second compound 0.03 µM, first compound 0.01 µM
[7] = second compound 0.03 µM, first compound 0.0316 µM
[8] = second compound 0.03 µM, first compound 0.1 µM
[9] = second compound 0.0949 µM, first compound 0.00316 µM
[10] = second compound 0.0949 µM, first compound 0.01 µM
[11] = second compound 0.0949 µM, first compound 0.0316 µM
[12] = second compound 0.0949 µM, first compound 0.1 µM
[13] = second compound 0.3 µM, first compound 0.00316 µM
[14] = second compound 0.3 µM, first compound 0.01 µM
[15] = second compound 0.3 µM, first compound 0.0316 µM
[16] = second compound 0.3 µM, first compound 0.1 µM
[17] = second compound 0.949 µM, first compound 0.00316 µM
[18] = second compound 0.949 µM, first compound 0.01 µM
[19] = second compound 0.949 µM, first compound 0.0316 µM
[20] = second compound 0.949 µM, first compound 0.1 µM
[21] = second compound 3 µM, first compound 0.00316 µM
[22] = second compound 3 µM, first compound 0.01 µM
[23] = second compound 3 µM, first compound 0.0316 µM
[24] = second compound 3 µM, first compound 0.1 µM
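Note: seven day drug exposure begun three days after spheroid seeding.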
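Throughout, for viability, T/C: 100% = DMSO vehicle wells and lower values mean less viable spheroid.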

COc1c(OCCCN2CCOCC2)ccc2c3n(c(=NC(=O)c4cnc(N)nc4)nc12)CCN3 + CCN1C(C(=O)NC23CCC(C(=O)O)(CC2)CC3)C(c2cccc(Cl)c2F)C2(C(=O)Nc3cc(Cl)ccc32)C12CCCCC2
IC50 (second compound 0.00949 µM): > 1000 nM
IC50 (second compound 0.03 µM): > 1000 nM
IC50 (second compound 0.0949 µM): > 1000 nM
IC50 (second compound 0.3 µM): 749 nM
IC50 (second compound 0.949 µM): 301 nM
IC50 (second compound 3 µM): > 1000 nM
viability, T/C [1]: 75.5%
viability, T/C [2]: 130%
viability, T/C [3]: 88.6%
viability, T/C [4]: 80.3%
viability, T/C (second compound 0.00949 µM, first compound 0.316 µM): 70.8%
viability, T/C (second compound 0.00949 µM, first compound 1 µM): 53%
viability, T/C [5]: 95.3%
viability, T/C [6]: 93.1%
viability, T/C [7]: 89.3%
viability, T/C [8]: 80.3%
viability, T/C (second compound 0.03 µM, first compound 0.316 µM): 81.6%
viability, T/C (second compound 0.03 µM, first compound 1 µM): 57.3%
viability, T/C [9]: 86.8%
viability, T/C [10]: 80.3%
viability, T/C [11]: 98.1%
viability, T/C [12]: 77.2%
viability, T/C (second compound 0.0949 µM, first compound 0.316 µM): 64.2%
viability, T/C (second compound 0.0949 µM, first compound 1 µM): 55.9%
viability, T/C [13]: 89.8%
viability, T/C [14]: 73.2%
viability, T/C [15]: 80.2%
viability, T/C [16]: 84.3%
viability, T/C (second compound 0.3 µM, first compound 0.316 µM): 56.2%
viability, T/C (second compound 0.3 µM, first compound 1 µM): 47.9%
viability, T/C [17]: 69.6%
viability, T/C [18]: 91.1%
viability, T/C [19]: 91%
viability, T/C [20]: 47.5%
viability, T/C (second compound 0.949 µM, first compound 0.316 µM): 60.8%
viability, T/C (second compound 0.949 µM, first compound 1 µM): 32.1%
viability, T/C [21]: 78.4%
viability, T/C [22]: 86%
viability, T/C [23]: 80.6%
viability, T/C [24]: 57.6%
viability, T/C (second compound 3 µM, first compound 0.316 µM): 60.2%
viability, T/C (second compound 3 µM, first compound 1 µM): 50.4%

NC(=O)C(=Cn1cnc(-c2cc(C(F)(F)F)cc(C(F)(F)F)c2)n1)c1cncnc1 + CCN1C(C(=O)NC23CCC(C(=O)O)(CC2)CC3)C(c2cccc(Cl)c2F)C2(C(=O)Nc3cc(Cl)ccc32)C12CCCCC2
IC50 (second compound 0.00949 µM): > 300 nM
IC50 (second compound 0.03 µM): > 300 nM
IC50 (second compound 0.0949 µM): > 300 nM
IC50 (second compound 0.3 µM): > 300 nM
IC50 (second compound 0.949 µM): > 300 nM
IC50 (second compound 3 µM): > 300 nM
viability, T/C (second compound 0.00949 µM, first compound 0.000949 µM): 102%
viability, T/C (second compound 0.00949 µM, first compound 0.003 µM): 94.8%
viability, T/C (second compound 0.00949 µM, first compound 0.00949 µM): 56.9%
viability, T/C (second compound 0.00949 µM, first compound 0.03 µM): 69.6%
viability, T/C (second compound 0.00949 µM, first compound 0.0949 µM): 65.8%
viability, T/C (second compound 0.00949 µM, first compound 0.3 µM): 81.9%
viability, T/C (second compound 0.03 µM, first compound 0.000949 µM): 87.2%
viability, T/C (second compound 0.03 µM, first compound 0.003 µM): 81%
viability, T/C (second compound 0.03 µM, first compound 0.00949 µM): 94.5%
viability, T/C (second compound 0.03 µM, first compound 0.03 µM): 81.4%
viability, T/C (second compound 0.03 µM, first compound 0.0949 µM): 63.5%
viability, T/C (second compound 0.03 µM, first compound 0.3 µM): 53.8%
viability, T/C (second compound 0.0949 µM, first compound 0.000949 µM): 87.5%
viability, T/C (second compound 0.0949 µM, first compound 0.003 µM): 94.5%
viability, T/C (second compound 0.0949 µM, first compound 0.00949 µM): 94.3%
viability, T/C (second compound 0.0949 µM, first compound 0.03 µM): 63.8%
viability, T/C (second compound 0.0949 µM, first compound 0.0949 µM): 63.4%
viability, T/C (second compound 0.0949 µM, first compound 0.3 µM): 63%
viability, T/C (second compound 0.3 µM, first compound 0.000949 µM): 75.5%
viability, T/C (second compound 0.3 µM, first compound 0.003 µM): 73.2%
viability, T/C (second compound 0.3 µM, first compound 0.00949 µM): 70.8%
viability, T/C (second compound 0.3 µM, first compound 0.03 µM): 88.2%
viability, T/C (second compound 0.3 µM, first compound 0.0949 µM): 45.1%
viability, T/C (second compound 0.3 µM, first compound 0.3 µM): 85.9%
viability, T/C (second compound 0.949 µM, first compound 0.000949 µM): 69.5%
viability, T/C (second compound 0.949 µM, first compound 0.003 µM): 71.9%
viability, T/C (second compound 0.949 µM, first compound 0.00949 µM): 58.3%
viability, T/C (second compound 0.949 µM, first compound 0.03 µM): 78.7%
viability, T/C (second compound 0.949 µM, first compound 0.0949 µM): 85.4%
viability, T/C (second compound 0.949 µM, first compound 0.3 µM): 79.2%
viability, T/C (second compound 3 µM, first compound 0.000949 µM): 69%
viability, T/C (second compound 3 µM, first compound 0.003 µM): 81.2%
viability, T/C (second compound 3 µM, first compound 0.00949 µM): 59%
viability, T/C (second compound 3 µM, first compound 0.03 µM): 65.5%
viability, T/C (second compound 3 µM, first compound 0.0949 µM): 91.2%
viability, T/C (second compound 3 µM, first compound 0.3 µM): 82.1%

NC1CCC(NC2CC2c2ccccc2)CC1 (stereo unspecified) + CCN1C(C(=O)NC23CCC(C(=O)O)(CC2)CC3)C(c2cccc(Cl)c2F)C2(C(=O)Nc3cc(Cl)ccc32)C12CCCCC2
IC50 (second compound 0.00949 µM): > 100 nM
IC50 (second compound 0.03 µM): > 100 nM
IC50 (second compound 0.0949 µM): > 100 nM
IC50 (second compound 0.3 µM): > 100 nM
IC50 (second compound 0.949 µM): > 100 nM
IC50 (second compound 3 µM): > 100 nM
viability, T/C (second compound 0.00949 µM, first compound 0.000316 µM): 101%
viability, T/C (second compound 0.00949 µM, first compound 0.001 µM): 129%
viability, T/C [1]: 130%
viability, T/C [2]: 112%
viability, T/C [3]: 107%
viability, T/C [4]: 92.4%
viability, T/C (second compound 0.03 µM, first compound 0.000316 µM): 146%
viability, T/C (second compound 0.03 µM, first compound 0.001 µM): 149%
viability, T/C [5]: 101%
viability, T/C [6]: 84.1%
viability, T/C [7]: 70.2%
viability, T/C [8]: 110%
viability, T/C (second compound 0.0949 µM, first compound 0.000316 µM): 136%
viability, T/C (second compound 0.0949 µM, first compound 0.001 µM): 127%
viability, T/C [9]: 136%
viability, T/C [10]: 124%
viability, T/C [11]: 128%
viability, T/C [12]: 107%
viability, T/C (second compound 0.3 µM, first compound 0.000316 µM): 101%
viability, T/C (second compound 0.3 µM, first compound 0.001 µM): 82%
viability, T/C [13]: 99.6%
viability, T/C [14]: 95.7%
viability, T/C [15]: 95.4%
viability, T/C [16]: 129%
viability, T/C (second compound 0.949 µM, first compound 0.000316 µM): 97.5%
viability, T/C (second compound 0.949 µM, first compound 0.001 µM): 83.1%
viability, T/C [17]: 117%
viability, T/C [18]: 89.1%
viability, T/C [19]: 89.9%
viability, T/C [20]: 91%
viability, T/C (second compound 3 µM, first compound 0.000316 µM): 66.9%
viability, T/C (second compound 3 µM, first compound 0.001 µM): 86.8%
viability, T/C [21]: 74.4%
viability, T/C [22]: 66.3%
viability, T/C [23]: 74.3%
viability, T/C [24]: 89.2%
